Converted amounts (≈) assume the structure as drawn. Like-named read-outs stand apart in the source and are kept apart here.
Experiments:
[1] = test system: S. aureus, MRSA 1A-218, 1A-318, 1B-374, 1B-315, 1B-185, 1B387 and MSSA ATCC-6538, ATCC-29213; experiment: MIC by standard microdilution method against S. aureus (MRSA and MSSA strains); format: cell-based; settings: Staphylococcus aureus
Description: A standard microdilution method (NCCLS, 2000; Document M7-A5) was used to determine the minimum inhibitory concentrations (MICs) against S. aureus, methicillin-resistant strains (MRSA); 1A-218, 1A-318, 1B-374, 1B-315, 1B-185, 1B387 (Simor et al. 1999 Can Commun Dis Rep; 25:105-108) and methicillin-sensitive strains (MSSA); ATCC-6538 and ATCC-29213. The MICs of some compounds were also determined against other Gram-positive bacteria: Enterococcus faecium (ATCC 51559), Enterococcus faecalis (ATCC-51299, ATCC-29212) and Staphylococcus epidermidis (ATCC-35983).
Mueller-Hinton broth (MHB) is recommended as the medium of choice for susceptibility testing of commonly isolated, rapidly growing aerobic organisms such as the Gram-positive bacteria included in this study. A “cation-adjusted Mueller-Hinton broth” (Ca-MHB) was prepared by first preparing standard MHB from a dehydrated base as recommended by the manufacturer.
Single colonies from fresh agar plates of the different bacterial cultures were sub-cultured overnight in 3 ml of Tryptic soy broth (TSB) at 37° C. with shaking at 250 RPM. After 18-20 hours of incubation, the absorbance at λ=600 nm (OD600) were determined for each culture and adjusted to a final OD600=0.1 (4.2×10^7 cfu/ml). Bacterial suspensions were then diluted 1:200 in sterile Ca-MHB for the in vitro susceptibility test, with each well of the microtitre plate containing approximately 2×10^5 cfu/ml.
Stock solutions of the different test compounds were prepared at concentrations of 1,280 μg/ml, 640 μg/ml, or 320 μg/ml in 50% DMSO (dimethyl sulfoxide). Serial two-fold dilutions were then prepared in 50% DMSO (the working concentrations were 1:10 of the stock concentrations in 100 μl culture suspensions). The filled microtitre plates were sealed in plastic bags and incubated at 35° C. for 24 hr in an ambient air incubator with shaking at 250 RPM. MIC values were determined as the lowest concentration where complete inhibition of the visible bacterial growth was observed by the unaided eye and confirmed by the measurement of the optical density (OD600).

[2] = test system: Candida albicans (ATCC 24433); experiment: In vitro anti-fungal activity, microdilution against Candida albicans; format: cell-based
Description: A microdilution method was used to determine the anti-fungal activity of different test compounds against Candida albicans (ATCC 24433) at 25 μg/ml. RPMI-1640 broth is recommended as the medium of choice for susceptibility testing of C. albicans (NCCLS, 2002; Document M27-A2) and was used in this study. The broth was buffered to pH 7.0 and then sterilized using a 250 ml vacuum driven disposable 0.45 um filtration system.
C. albicans was sub-cultured from a −80° C. stock onto Sabouraud dextrose agar and incubated for 24-48 hrs at 37° C. The fungi inoculum was prepared by picking five colonies of ˜1 mm in diameter from 24-48 hr old cultures. The colonies were then suspended in 5 ml of sterile normal saline (8.5 g/L NaCl; 0.85% saline) diluted 1:50 and further diluted 1:20 with medium to obtain two-fold inoculum (1-5×10^3 cfu/ml). […] The microtitre plates were then sealed in plastic bags and incubated at 35° C. for 24-48 hrs in an ambient air incubator with shaking at 250 RPM.
Inhibition of visible growth of C. albicans in the microtitre plate wells was assessed by the unaided eye and confirmed by OD600 reading. […] The MIC values of compounds with significant activity are also included.

[3] = test system: MRSA 1B-387; experiment: In vivo anti-bacterial activity, ICR mice inoculated I.P. with MRSA, oral treatment; settings: Staphylococcus aureus
Description: For in vivo studies, groups of 5-10 female ICR mice (6-7 weeks) were inoculated intraperitonially with 3-8×10^7 CFU MRSA 1B-387 per mouse in 400 μl of 5% mucin. The test compounds at concentrations of 50 or 100 mg/kg were administered orally immediately after the bacterial inoculation and again 3 hours later. The selected dosages were administered twice daily throughout the experiment. The efficacy of the treatment was evaluated by comparison of mortality between the experimental and control groups (Table 5).

[4] = against all 8 strains of S. aureus tested except where indicated, microdilution, Ca-MHB, 35° C., 24 hr, read-out: MIC
[5] = ATCC24433, C. albicans ATCC 24433, compound 25 μg/ml, 24 h, read-out: Inhibition (%) after 24 h
[6] = ATCC24433, C. albicans ATCC 24433, compound 25 μg/ml, 48 h, read-out: Inhibition (%) after 48 h

`Oc1ccc(-c2nc(-c3cccc(Cl)c3Cl)c(-c3ccccc3)[nH]2)cc1O` [Compound 69] showed an MIC [1, 4] of 16 µg/mL (≈ 40.3 µM).
`c1ccc(-c2ccc(-c3[nH]c(-c4c[nH]c5ccccc45)nc3-c3ccccc3)cc2)cc1` [Compound 49] was tested, and the MIC [1, 4] was 4 µg/mL (≈ 9.72 µM).
`Cn1cc(-c2nc3c4ccccc4c4ccccc4c3[nH]2)c2ccccc21` [Compound 47] was tested, and the MIC [1, 4] was over 128 µg/mL.
In the case of `O=C(O)c1ccc(-c2nc(-c3ccccc3)c(-c3cccc4ccccc34)[nH]2)cc1` [Compound 60], the MIC [1, 4] is reported as 64 µg/mL (≈ 164 µM).
In the case of `Cc1[nH]c2ccccc2c1-c1nc(-c2ccccn2)c(-c2ccccn2)[nH]1` [Compound 15], the MIC [1, 4] is reported as over 128 µg/mL.
For `Cc1[nH]c2ccccc2c1-c1nc(-c2ccccc2)c(-c2ccc([N+](=O)[O-])cc2)[nH]1` [Compound 33], the inhibition at 25 µg/mL [2, 5] was 0%, the inhibition at 25 µg/mL [2, 6] was 0% and the responders at 100 mg/kg [3] was 0%. For the same compound, the responders at 100 mg/kg ([3]; read-out: Survival %) was 0% and the MIC [1, 4] was 4 to 8 µg/mL (≈ 10.1 to 20.3 µM).
In the case of `Clc1ccc(-c2nc(-c3c[nH]c4ccc(Br)cc34)[nH]c2-c2ccc(Cl)cc2)cc1` [Compound 20], the MIC [1, 4] is reported as 2 to 4 µg/mL (≈ 4.14 to 8.28 µM).
`c1ccc(-c2[nH]c(-c3c[nH]c4ccccc34)nc2-c2cccc3ccccc23)cc1` [Compound 54] showed an MIC [1, 4] of 2 to 4 µg/mL (≈ 5.19 to 10.4 µM).
`COc1cc(-c2nc(-c3ccc(Cl)cc3)c(-c3ccc(Cl)cc3)[nH]2)cc(OC)c1O` [Compound 66] was tested, and the MIC [1, 4] was 2 µg/mL (≈ 4.53 µM).
`COc1ccc(-c2nc(-c3c[nH]c4ccc(Br)cc34)[nH]c2-c2ccc(OC)cc2)cc1` [Compound 10] showed an inhibition at 25 µg/mL [2, 5] of 0%, an inhibition at 25 µg/mL [2, 6] of 0% and a responders at 100 mg/kg [3] of 100%. It also gave a responders at 100 mg/kg ([3]; read-out: Survival %) of 100% and an MIC [1, 4] of 4 µg/mL (≈ 8.43 µM).
Compound `COc1ccc(-c2nc(-c3c(C)[nH]c4ccccc34)[nH]c2-c2ccc(OC)cc2)cc1` [Compound 9] has an MIC [1, 4] of 8 µg/mL (≈ 19.5 µM).
`Brc1ccc2[nH]cc(-c3nc(-c4cccs4)c(-c4cccs4)[nH]3)c2c1` [Compound 26] was tested, and the MIC [1, 4] was 2 µg/mL (≈ 4.69 µM).
Compound `COc1ccc(-c2nc(-c3ccccc3)c(-c3ccccc3)[nH]2)c(OC)c1` [Compound 73] has an MIC [1, 4] of over 128 µg/mL.
With `Brc1ccc2[nH]cc(-c3nc(-c4ccc(Oc5ccccc5)cc4)c(-c4ccc(Oc5ccccc5)cc4)[nH]3)c2c1` [Compound 39] the MIC [1, 4] was over 128 µg/mL.
With `Cc1ccc([N+](=O)[O-])cc1-c1[nH]c(-c2cccc(O)c2)nc1-c1ccccc1` [Compound 67] the MIC [1, 4] was 16 µg/mL (≈ 43.1 µM).
With `c1ccc2c(-c3nc4c5ccccc5c5ccccc5c4[nH]3)c[nH]c2c1` [Compound 46] the inhibition at 25 µg/mL ([2]; ATCC24433, 24 h, read-out: Inhibition (%) after 24 h) was 33%, the inhibition at 25 µg/mL ([2]; ATCC24433, 48 h, read-out: Inhibition (%) after 48 h) was 0% and the responders at 100 mg/kg [3] was 40%. For the same compound, the responders at 100 mg/kg ([3]; read-out: Survival %) was 40% and the MIC ([1]; 24 h) was 4 µg/mL (≈ 12 µM).
`Cc1ccc(-c2nc(-c3cccc(O)c3)[nH]c2-c2ccccc2Br)cc1` [Compound 64] showed an MIC [1, 4] of 4 µg/mL (≈ 9.87 µM).
Work on `c1ccc(-c2[nH]c(-c3c[nH]c4ccccc34)nc2-c2ccc3ccccc3c2)cc1` [Compound 55] yielded an MIC [1, 4] of 2 µg/mL (≈ 5.19 µM).
Compound `Cc1[nH]c2ccccc2c1-c1nc(-c2ccncc2)c(-c2ccc(F)cc2)[nH]1` [Compound 27] has an MIC [1, 4] of 32 to 64 µg/mL (≈ 86.9 to 174 µM).
`CC(=O)n1c(-c2c(C)n(C(C)=O)c3ccccc23)nc(-c2ccccc2)c1-c1ccccc1` [Compound 5] showed an inhibition at 25 µg/mL [2, 5] of 0%, an inhibition at 25 µg/mL [2, 6] of 0% and a responders at 100 mg/kg [3] of 20%. For the same compound, the responders at 100 mg/kg ([3]; read-out: Survival %) was 20% and the MIC [1, 4] was over 128 µg/mL.
Work on `Oc1ccc(-c2nc(-c3ccc(-c4ccccc4)cc3)c(-c3ccccc3)[nH]2)cc1` [Compound 63] yielded an MIC [1, 4] of 2 µg/mL (≈ 5.15 µM).
`COc1ccc(-c2nc(-c3ccc(O)cc3)[nH]c2-c2ccc(OC)cc2)cc1` [Compound 57] was tested, and the MIC [1, 4] was 16 µg/mL (≈ 43 µM).
With `Cc1[nH]c2ccccc2c1-c1nc(-c2ccc(Oc3ccccc3)cc2)c(-c2ccc(Oc3ccccc3)cc2)[nH]1` [Compound 38] the MIC [1, 4] was over 128 µg/mL.
`COc1ccc(-c2nc(-c3ccc(F)cc3)c(-c3ccccc3)[nH]2)c(OC)c1` [Compound 74] was tested, and the MIC [1, 4] was over 128 µg/mL.
In the case of `O=C(O)c1ccc(-c2nc(-c3ccc(Br)cc3)c(-c3ccccc3)[nH]2)cc1` [Compound 59], the MIC [1, 4] is reported as 32 µg/mL (≈ 76.3 µM).
